Results taken from US10479780B2, “Aminopyrazole derivatives” (Chugai Seiyaku Kabushiki Kaisha, priority 2015, dated 2019).

Assays:
Type in all cases: biochemical
[1] = molecular target: T1, human Yes1 enzyme (Homo sapiens, UniProt P07947); assay: Yes1 enzyme inhibitory activity (time-resolved fluorometry, biotinylated peptide phosphorylation); settings: biotinylated peptide phosphorylation, read-out: YES_IC50
T1 construct: made in house
Procedure: (§1) 1. Yes1 Enzyme Inhibitory Activity Yes1 inhibitory activity was determined based on activity of inhibiting phosphorylation reaction of a biotinylated peptide (EGPWLEEEEEAYGWMDF) using a human Yes1 enzyme prepared using a baculovirus expression system. The phosphorylated biotinylated peptide was detected by time-resolved fluorometry using an anti-phosphorylated tyrosine antibody conjugated to europium cryptate, and streptavidin conjugated to XL665, an allophycocyanin derivative. The 50% inhibitory concentration (IC50) was calculated from the inhibition rate relative to the control group without containing the test substance.

[2] = molecular target: T2, human Src enzyme (Homo sapiens, UniProt P12931); assay: Src enzyme inhibitory activity (time-resolved fluorometry, biotinylated peptide phosphorylation); settings: biotinylated peptide phosphorylation, read-out: SRC_IC50
T2 construct: purchased Carna Biosciences, Inc. 08-173
T2 sequence (P12931 whole entry): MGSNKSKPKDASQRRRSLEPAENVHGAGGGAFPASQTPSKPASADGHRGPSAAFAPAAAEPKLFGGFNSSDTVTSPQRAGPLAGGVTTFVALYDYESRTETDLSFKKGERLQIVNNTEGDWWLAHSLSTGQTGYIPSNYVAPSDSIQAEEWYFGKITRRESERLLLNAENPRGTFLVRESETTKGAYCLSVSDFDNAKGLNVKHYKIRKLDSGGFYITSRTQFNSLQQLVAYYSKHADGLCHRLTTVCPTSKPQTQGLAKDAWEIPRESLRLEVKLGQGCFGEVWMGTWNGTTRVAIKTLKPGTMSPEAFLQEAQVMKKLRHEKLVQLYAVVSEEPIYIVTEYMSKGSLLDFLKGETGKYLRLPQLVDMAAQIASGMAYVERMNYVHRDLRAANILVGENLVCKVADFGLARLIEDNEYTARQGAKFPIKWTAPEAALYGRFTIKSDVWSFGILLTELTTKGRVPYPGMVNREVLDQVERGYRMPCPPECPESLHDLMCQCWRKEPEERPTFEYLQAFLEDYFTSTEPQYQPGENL
Procedure: as §1, with “2. Src” for “1. Yes1”, “Src” for “Yes1”, “(manufactured by Carna Biosciences, Inc., cat 08-173).” for “prepared using a baculovirus expression system.”

[3] = molecular target: T3, human Lck enzyme (Homo sapiens, UniProt P06239); assay: Lck enzyme inhibitory activity (time-resolved fluorometry, biotinylated peptide phosphorylation); settings: biotinylated peptide phosphorylation, read-out: LCK_IC50
T3 construct: purchased Carna Biosciences, Inc. 08-170
T3 sequence (P06239 whole entry): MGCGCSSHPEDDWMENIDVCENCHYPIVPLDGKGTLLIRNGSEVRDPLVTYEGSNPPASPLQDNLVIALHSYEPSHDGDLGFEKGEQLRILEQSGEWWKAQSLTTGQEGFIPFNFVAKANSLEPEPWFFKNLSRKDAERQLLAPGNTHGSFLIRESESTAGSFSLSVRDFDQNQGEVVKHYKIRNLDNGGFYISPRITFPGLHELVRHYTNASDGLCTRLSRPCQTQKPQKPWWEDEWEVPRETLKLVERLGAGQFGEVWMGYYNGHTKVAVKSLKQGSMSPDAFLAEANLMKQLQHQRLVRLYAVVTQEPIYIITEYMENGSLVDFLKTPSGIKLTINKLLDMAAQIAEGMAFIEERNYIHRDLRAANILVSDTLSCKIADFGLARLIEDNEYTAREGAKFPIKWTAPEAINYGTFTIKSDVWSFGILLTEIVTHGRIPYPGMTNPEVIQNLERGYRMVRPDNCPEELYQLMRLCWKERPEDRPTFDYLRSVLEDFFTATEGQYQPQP
Procedure: as §1, with “3. Lck” for “1. Yes1”, “Lck” for “Yes1”, “(manufactured by Carna Biosciences, Inc., cat 08-170).” for “prepared using a baculovirus expression system.”

T1 sequence (P07947 whole entry): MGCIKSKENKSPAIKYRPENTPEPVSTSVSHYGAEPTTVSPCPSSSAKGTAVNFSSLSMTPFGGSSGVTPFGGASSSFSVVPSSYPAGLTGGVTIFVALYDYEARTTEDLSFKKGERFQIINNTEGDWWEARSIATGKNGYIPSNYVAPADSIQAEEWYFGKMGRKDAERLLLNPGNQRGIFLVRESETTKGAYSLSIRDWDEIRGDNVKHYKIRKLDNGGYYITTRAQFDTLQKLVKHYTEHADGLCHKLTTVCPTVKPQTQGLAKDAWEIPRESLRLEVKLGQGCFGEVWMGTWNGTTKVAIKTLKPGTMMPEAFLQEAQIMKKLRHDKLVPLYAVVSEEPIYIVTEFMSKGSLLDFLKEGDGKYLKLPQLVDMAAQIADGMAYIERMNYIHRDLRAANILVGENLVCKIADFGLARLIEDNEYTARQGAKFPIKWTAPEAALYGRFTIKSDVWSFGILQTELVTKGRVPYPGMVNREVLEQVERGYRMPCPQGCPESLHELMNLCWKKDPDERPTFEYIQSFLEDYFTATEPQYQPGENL

## CC(C)N1CCC(c2cc3cc(C(=O)c4cnn(-c5ccc(Oc6ccccc6F)cc5F)c4N)[nH]c3cc2F)CC1 [Example 4-2-009, [5-amino-1-[2-fluoro-4-(2-fluorophenoxy)phenyl]pyrazol-4-yl]-[6-fluoro-5-(1-propan-2-ylpiperidin-4-yl)-1H-indol-2-yl]methanone]
[1]
  IC50: 0.81 nM
[2]
  IC50: 5.1 nM
[3]
  IC50: 3.4 nM

## Cc1cc(Oc2ccccc2F)ccc1-n1ncc(C(=O)c2cc3cc(F)c(C4CCN(C(C)C)CC4)cc3[nH]2)c1N [Example 4-2-010, [5-amino-1-[4-(2-fluorophenoxy)-2-methylphenyl]pyrazol-4-yl]-[5-fluoro-6-(1-propan-2-ylpiperidin-4-yl)-1H-indol-2-yl]methanone]
[1]
  IC50: 1.2 nM
[2]
  IC50: 4.7 nM
[3]
  IC50: 1.9 nM

## Cc1cc(Oc2cccc(F)c2F)ccc1-n1ncc(C(=O)c2cc3cc(F)c(C4CCN(C(C)C)CC4)cc3[nH]2)c1N [Example 4-2-011, [5-amino-1-[4-(2,3-difluorophenoxy)-2-methylphenyl]pyrazol-4-yl][5-fluoro-6-(1-propan-2-ylpiperidin-4-yl)-1H-indol-2-yl]methanone]
[1]
  IC50: 2.2 nM
[2]
  IC50: 11 nM
[3]
  IC50: 2.7 nM

## Cc1cc(Oc2ccccc2Cl)ccc1-n1ncc(C(=O)c2cc3cc(F)c(C4CCN(C(C)C)CC4)cc3[nH]2)c1N [Example 4-2-012, [5-amino-1-[4-(2-chlorophenoxy)-2-methylphenyl]pyrazol-4-yl]-[5-fluoro-6-(1-propan-2-ylpiperidin-4-yl)-1H-indol-2-yl]methanone]
[1]
  IC50: 2.2 nM
[2]
  IC50: 9.4 nM
[3]
  IC50: 4.9 nM

## Cc1cc(Oc2cccc(Cl)c2)ccc1-n1ncc(C(=O)c2cc3cc(F)c(C4CCN(C(C)C)CC4)cc3[nH]2)c1N [Example 4-2-013, [5-amino-1-[4-(3-chlorophenoxy)-2-methylphenyl]pyrazol-4-yl]-[5-fluoro-6-(1-propan-2-ylpiperidin-4-yl)-1H-indol-2-yl]methanone]
[1]
  IC50: 1.1 nM
[2]
  IC50: 49 nM
[3]
  IC50: 9.7 nM

## Cc1cc(-n2ncc(C(=O)c3cc4cc(F)c(C5CCN(C(C)C)CC5)cc4[nH]3)c2N)ccc1Oc1ccccc1F [Example 4-2-014, [5-amino-1-[4-(2-fluorophenoxy)-3-methylphenyl]pyrazol-4-yl]-[5-fluoro-6-(1-propan-2-ylpiperidin-4-yl)-1H-indol-2-yl]methanone]
[1]
  IC50: 18 nM
[2]
  IC50: 510 nM
[3]
  IC50: 62 nM

## Cc1cc(Oc2ccccc2F)ccc1-n1ncc(C(=O)c2cc3cc(F)c(NS(=O)(=O)CCCF)cc3[nH]2)c1N [Example 4-2-015, N-[2-[5-amino-1-[4-(2-fluorophenoxy)-2-methylphenyl]pyrazole-4-carbonyl]-5-fluoro-1H-indol-6-yl]-3-fluoropropane-1-sulfonamide]
[1]
  IC50: 0.67 nM
[2]
  IC50: 19 nM
[3]
  IC50: 10 nM

## Cc1cc(Oc2cccc(F)c2F)ccc1-n1ncc(C(=O)c2cc3cc(F)c(NS(=O)(=O)CCCF)cc3[nH]2)c1N [Example 4-2-016, N-[2-[5-amino-1-[4-(2,3-difluorophenoxy)-2-methylphenyl]pyrazole-4-carbonyl]-5-fluoro-1H-indol-6-yl]-3-fluoropropane-1-sulfonamide]
[1]
  IC50: 2.1 nM
[2]
  IC50: 70 nM
[3]
  IC50: 19 nM

## Cc1cc(Oc2ccccn2)ccc1-n1ncc(C(=O)c2cc3cc(F)c(NS(=O)(=O)CCCF)cc3[nH]2)c1N [Example 4-2-017, N-[2-[5-amino-1-(2-methyl-4-pyridin-2-yloxyphenyl)pyrazole-4-carbonyl]-5-fluoro-1H-indol-6-yl]-3-fluoropropane-1-sulfonamide]
[1]
  IC50: 0.55 nM
[2]
  IC50: 26 nM
[3]
  IC50: 17 nM

## Nc1c(C(=O)c2cc3cc(F)c(NS(=O)(=O)CCCF)cc3[nH]2)cnn1-c1ccc(Oc2ccccn2)cc1Cl [Example 4-2-018, N-[2-[5-amino-1-(2-chloro-4-pyridin-2-yloxyphenyl)pyrazole-4-carbonyl]-5-fluoro-1H-indol-6-yl]-3-fluoropropane-1-sulfonamide]
[1]
  IC50: 0.52 nM
[2]
  IC50: 22 nM
[3]
  IC50: 15 nM
